Measured values: the supplement of paper PMC10307832

Legend:
Assay in all cases: relative viability (nuclei count vs DMSO), 5 days (fraction); higher = more cells survive
[1] = test system: A-427
Outline: (§1)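 Lung cancer cell lines, seeded in 1536-well plates, were treated the following day by pin tool with a single drug or with five library-drug doses (not always all listed) in √10 steps on top of a fixed anchor-drug dose. Cells were fixed and nuclei stained in one step after 5 days, and nuclei were counted. Relative viability is the nuclei count for treated wells divided by that for vehicle wells, reported as medians of duplicate plates.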

[2] = test system: COR-L 105
Outline: as §1

[3] = test system: ChaGo-K-1
Outline: as §1

[4] = test system: EKVX
Outline: as §1

[5] = test system: EMC-BAC-2
Outline: as §1

[6] = test system: H3255
Outline: as §1

[7] = test system: HCC-366
Outline: as §1

[8] = test system: LK-2
Outline: as §1

[9] = test system: LOU-NH91
Outline: as §1

[10] = test system: NCI-H1666
Outline: as §1

[11] = test system: NCI-H1734
Outline: as §1

[12] = test system: NCI-H1755
Outline: as §1

[13] = test system: NCI-H1792
Outline: as §1

[14] = test system: NCI-H1975
Outline: as §1

[15] = test system: NCI-H2170
Outline: as §1

[16] = test system: NCI-H23
Outline: as §1

[17] = test system: NCI-H441
Outline: as §1

[18] = test system: NCI-H520
Outline: as §1

[19] = test system: NCI-H596
Outline: as §1

[20] = test system: PC-3 [JPC-3]
Outline: as §1

[21] = test system: SK-MES-1
Outline: as §1

[22] = test system: SW 900
Outline: as §1

## CC1(C)CCC(c2ccc(Cl)cc2)=C(CN2CCN(c3ccc(C(=O)NS(=O)(=O)c4ccc(N[C@H](CCN5CCOCC5)CSc5ccccc5)c(S(=O)(=O)C(F)(F)F)c4)cc3)CC2)C1 [Navitoclax] + Nc1ncn([C@H]2C[C@H](O)[C@@H](CO)O2)c(=O)n1 [Decitabine] (partner 2 µM)
[1]; first compound 0.005 µM
  relative viability: 0.607
[1]; first compound 0.01581 µM
  relative viability: 0.534
[1]; first compound 0.05 µM
  relative viability: 0.517
[1]; first compound 0.1581 µM
  relative viability: 0.521
[1]; first compound 0.5 µM
  relative viability: 0.466
[2]; first compound 0.005 µM
  relative viability: 0.737
[2]; first compound 0.01581 µM
  relative viability: 0.89
[2]; first compound 0.05 µM
  relative viability: 0.6
[2]; first compound 0.1581 µM
  relative viability: 0.662
[2]; first compound 0.5 µM
  relative viability: 0.537
[3]; first compound 0.005 µM
  relative viability: 0.498
[3]; first compound 0.01581 µM
  relative viability: 0.549
[3]; first compound 0.05 µM
  relative viability: 0.392
[3]; first compound 0.1581 µM
  relative viability: 0.498
[3]; first compound 0.5 µM
  relative viability: 0.52
[4]; first compound 0.005 µM
  relative viability: 0.372
[4]; first compound 0.01581 µM
  relative viability: 0.428
[4]; first compound 0.05 µM
  relative viability: 0.361
[4]; first compound 0.1581 µM
  relative viability: 0.285
[4]; first compound 0.5 µM
  relative viability: 0.343
[5]; first compound 0.005 µM
  relative viability: 0.943
[5]; first compound 0.01581 µM
  relative viability: 1.03
[5]; first compound 0.05 µM
  relative viability: 0.963
[5]; first compound 0.1581 µM
  relative viability: 0.915
[5]; first compound 0.5 µM
  relative viability: 0.911
[6]; first compound 0.005 µM
  relative viability: 0.503
[6]; first compound 0.01581 µM
  relative viability: 0.668
[6]; first compound 0.05 µM
  relative viability: 0.567
[6]; first compound 0.1581 µM
  relative viability: 0.596
[6]; first compound 0.5 µM
  relative viability: 0.519
[7]; first compound 0.005 µM
  relative viability: 0.34
[7]; first compound 0.01581 µM
  relative viability: 0.4
[7]; first compound 0.1581 µM
  relative viability: 0.332
[7]; first compound 0.5 µM
  relative viability: 0.365
[8]; first compound 0.005 µM
  relative viability: 0.295
[8]; first compound 0.01581 µM
  relative viability: 0.279
[8]; first compound 0.05 µM
  relative viability: 0.235
[8]; first compound 0.1581 µM
  relative viability: 0.267
[8]; first compound 0.5 µM
  relative viability: 0.4
[9]; first compound 0.005 µM
  relative viability: 0.798
[9]; first compound 0.01581 µM
  relative viability: 0.88
[9]; first compound 0.05 µM
  relative viability: 0.79
[9]; first compound 0.1581 µM
  relative viability: 0.711
[9]; first compound 0.5 µM
  relative viability: 0.391
[10]; first compound 0.005 µM
  relative viability: 0.781
[10]; first compound 0.01581 µM
  relative viability: 0.759
[10]; first compound 0.05 µM
  relative viability: 0.628
[10]; first compound 0.1581 µM
  relative viability: 0.692
[10]; first compound 0.5 µM
  relative viability: 0.765
[11]; first compound 0.005 µM
  relative viability: 0.51
[11]; first compound 0.01581 µM
  relative viability: 0.512
[11]; first compound 0.1581 µM
  relative viability: 0.5
[11]; first compound 0.5 µM
  relative viability: 0.465
[12]; first compound 0.005 µM
  relative viability: 0.664
[12]; first compound 0.01581 µM
  relative viability: 0.727
[12]; first compound 0.05 µM
  relative viability: 0.611
[12]; first compound 0.1581 µM
  relative viability: 0.677
[12]; first compound 0.5 µM
  relative viability: 0.697
[13]; first compound 0.005 µM
  relative viability: 0.488
[13]; first compound 0.01581 µM
  relative viability: 0.644
[13]; first compound 0.1581 µM
  relative viability: 0.525
[13]; first compound 0.5 µM
  relative viability: 0.447
[14]; first compound 0.005 µM
  relative viability: 0.432
[14]; first compound 0.01581 µM
  relative viability: 0.392
[14]; first compound 0.05 µM
  relative viability: 0.261
[14]; first compound 0.1581 µM
  relative viability: 0.416
[14]; first compound 0.5 µM
  relative viability: 0.29
[15]; first compound 0.005 µM
  relative viability: 0.473
[15]; first compound 0.01581 µM
  relative viability: 0.484
[15]; first compound 0.05 µM
  relative viability: 0.475
[15]; first compound 0.1581 µM
  relative viability: 0.414
[15]; first compound 0.5 µM
  relative viability: 0.434
[16]; first compound 0.005 µM
  relative viability: 0.287
[16]; first compound 0.01581 µM
  relative viability: 0.32
[16]; first compound 0.05 µM
  relative viability: 0.307
[16]; first compound 0.1581 µM
  relative viability: 0.331
[16]; first compound 0.5 µM
  relative viability: 0.272
[17]; first compound 0.005 µM
  relative viability: 0.255
[17]; first compound 0.01581 µM
  relative viability: 0.217
[17]; first compound 0.05 µM
  relative viability: 0.207
[17]; first compound 0.1581 µM
  relative viability: 0.2
[17]; first compound 0.5 µM
  relative viability: 0.237
[18]; first compound 0.005 µM
  relative viability: 0.432
[18]; first compound 0.01581 µM
  relative viability: 0.48
[18]; first compound 0.05 µM
  relative viability: 0.423
[18]; first compound 0.1581 µM
  relative viability: 0.487
[18]; first compound 0.5 µM
  relative viability: 0.489
[19]; first compound 0.005 µM
  relative viability: 1.04
[19]; first compound 0.01581 µM
  relative viability: 0.951
[19]; first compound 0.05 µM
  relative viability: 0.786
[19]; first compound 0.1581 µM
  relative viability: 0.998
[19]; first compound 0.5 µM
  relative viability: 1.01
[20]; first compound 0.005 µM
  relative viability: 0.922
[20]; first compound 0.01581 µM
  relative viability: 0.876
[20]; first compound 0.05 µM
  relative viability: 0.912
[20]; first compound 0.1581 µM
  relative viability: 0.758
[20]; first compound 0.5 µM
  relative viability: 0.653
[21]; first compound 0.005 µM
  relative viability: 0.371
[21]; first compound 0.01581 µM
  relative viability: 0.432
[21]; first compound 0.05 µM
  relative viability: 0.349
[21]; first compound 0.1581 µM
  relative viability: 0.344
[21]; first compound 0.5 µM
  relative viability: 0.372
[22]; first compound 0.005 µM
  relative viability: 0.406
[22]; first compound 0.01581 µM
  relative viability: 0.412
[22]; first compound 0.1581 µM
  relative viability: 0.445
[22]; first compound 0.5 µM
  relative viability: 0.262
